Measurements: patent publication US20250346585A1 (Alexion Pharmaceuticals, Inc., priority 2022, published 2025)

Biological target: Human complement C1s enzyme (Homo sapiens (Human), UniProt P09871)
Experiment: Human C1s enzyme assay
Assay type: biochemical
Settings: Human C1s enzyme assay of Example 3; read-out: IC50 (Stars)
Outline: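 IC50 derived by nonlinear regression of rate versus concentration, with rate taken from A405 kinetics (30 s intervals, 30 min) after adding 100 μM each Z-L-Lys-SBzl and DTNB. C1s from human serum, 1.16 nM, exposed to compound for 5 min at RT beforehand; buffer 50 mM Tris, 1 M NaCl, pH 7.5.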

Sequence of Human complement C1s enzyme (P09871 438-688 limits assumed): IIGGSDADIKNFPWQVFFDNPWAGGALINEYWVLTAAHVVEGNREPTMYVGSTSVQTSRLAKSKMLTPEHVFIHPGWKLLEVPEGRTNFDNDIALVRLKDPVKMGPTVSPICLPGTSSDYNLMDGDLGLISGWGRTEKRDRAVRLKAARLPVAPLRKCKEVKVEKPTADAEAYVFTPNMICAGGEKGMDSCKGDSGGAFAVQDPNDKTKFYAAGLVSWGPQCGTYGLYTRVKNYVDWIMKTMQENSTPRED
Sequence of Human complement C1s enzyme (P09871 16-437 partner limits assumed): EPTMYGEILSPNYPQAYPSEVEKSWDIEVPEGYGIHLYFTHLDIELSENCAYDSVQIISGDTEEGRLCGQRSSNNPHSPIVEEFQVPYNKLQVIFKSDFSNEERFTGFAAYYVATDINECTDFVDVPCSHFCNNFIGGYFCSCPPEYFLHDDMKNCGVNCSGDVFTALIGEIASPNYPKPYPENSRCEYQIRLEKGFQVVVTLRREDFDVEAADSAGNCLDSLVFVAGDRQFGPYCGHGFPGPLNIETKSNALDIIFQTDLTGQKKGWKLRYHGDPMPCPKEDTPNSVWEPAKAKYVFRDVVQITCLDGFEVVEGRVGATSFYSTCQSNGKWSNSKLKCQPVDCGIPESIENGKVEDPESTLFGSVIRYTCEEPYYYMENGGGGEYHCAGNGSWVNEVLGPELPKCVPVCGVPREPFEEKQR

IC50 [nM] | Compound
> 1000 | C[C@@H](NC(=O)[C@@H]1CC2(CN1C(=O)CNC(=O)c1ccc3c(c1)-c1ccccc1C3(F)F)OCCO2)c1ccc(-c2ncc[nH]2)s1 [Compound 135, (S)—N—((R)-1-(5-(1H-imidazol-2-yl)thiophen-2-yl)ethyl)-7-((9,9-difluoro-9H-fluorene-3-carbonyl)glycyl)-1,4-dioxa-7-azaspiro[4.4]nonane-8-carboxamide]
< 100 | C[C@@H](NC(=O)[C@@H]1CC2(CN1C(=O)CNC(=O)c1cc(F)c(-c3ccc(F)cc3)cn1)OCCO2)c1cc(C(=N)N)cs1 [Compound 181, (S)—N—((R)-1-(4-carbamimidoylthiophen-2-yl)ethyl)-7-((4-fluoro-5-(4-fluorophenyl)picolinoyl)glycyl)-1,4-dioxa-7-azaspiro[4.4]nonane-8-carboxamide]
< 100 | C[C@H]1C[C@@H](C(=O)N[C@H](C)c2cc(C(=N)N)cs2)N(C(=O)CNC(=O)c2ccc(Oc3ccc(F)cc3)cc2)C1 [Compound 45, (2S,4S)—N—((R)-1-(4-carbamimidoylthiophen-2-yl)ethyl)-1-((4-(4-fluorophenoxy)benzoyl)glycyl)-4-methylpyrrolidine-2-carboxamide]
< 100 | C[C@@H](NC(=O)[C@@H]1C[C@](F)(CF)CN1C(=O)CNC(=O)c1ccc(C(F)(F)c2ccccc2)cc1)c1cc(C(=N)N)cs1 [Compound 154, (2S,4R)—N—((R)-1-(4-carbamimidoylthiophen-2-yl)ethyl)-1-((4-(difluoro(phenyl)methyl)benzoyl)glycyl)-4-fluoro-4-(fluoromethyl)pyrrolidine-2-carboxamide]
< 100 | Cc1ccc(-c2cccc(C(=O)NCC(=O)N3CC4(C[C@H]3C(=O)N[C@H](C)c3cc(C(=N)N)cs3)OCCO4)c2)cc1 [Compound 120, (S)—N—((R)-1-(4-carbamimidoylthiophen-2-yl)ethyl)-7-((4′-methyl-[1,1′-biphenyl]-3-carbonyl)glycyl)-1,4-dioxa-7-azaspiro[4.4]nonane-8-carboxamide]
> 1000 | O=C(NCC(=O)N1CC2(C[C@H]1C(=O)NCc1cccs1)OCCO2)c1ccc(Oc2ccc(F)cc2)cc1 [Compound 124, (S)-7-((4-(4-fluorophenoxy)benzoyl)glycyl)-N-(thiophen-2-ylmethyl)-1,4-dioxa-7-azaspiro [4.4]nonane-8-carboxamide]
< 100 | COC[C@@]12C[C@@H]1N(C(=O)CNC(=O)c1ccc3c(c1)-c1ccccc1C3(F)F)[C@H](C(=O)N[C@H](C)c1cc(C(=N)N)cs1)C2 [Compound 72, (1S,3S,5R)—N—((R)-1-(4-carbamimidoylthiophen-2-yl)ethyl)-2-((9,9-difluoro-9H-fluorene-3-carbonyl)glycyl)-5-(methoxymethyl)-2-azabicyclo[3.1.0]hexane-3-carboxamide]
< 100 | Cc1ccccc1[C@H]1C[C@@H](C(=O)N[C@H](C)c2cc(C(=N)N)cs2)N(C(=O)CNC(=O)c2ccc3c(c2)-c2ccccc2C3(F)F)C1 [Compound 119, (2S,4R)—N—((R)-1-(4-carbamimidoylthiophen-2-yl)ethyl)-1-((9,9-difluoro-9H-fluorene-3-carbonyl)glycyl)-4-(o-tolyl)pyrrolidine-2-carboxamide]
< 100 | C[C@@H](NC(=O)[C@@H]1C[C@H](C2OCCCO2)CN1C(=O)CNC(=O)c1ccc(Oc2ccc(F)cc2)cc1)c1cc(C(=N)N)cs1 (relative stereo) [Compound 161, (2S,4S*)—N—((R)-1-(4-carbamimidoylthiophen-2-yl)ethyl)-4-(1,3-dioxan-2-yl)-1-((4-(4-fluorophenoxy)benzoyl)glycyl)pyrrolidine-2-carboxamide]

Same assay, conditions: Human complement C1s enzyme 1.16 nM, substrate Z-L-Lys-SBzl 100 μM, assay of Example 3; read-out: IC50 (Stars)

IC50 [nM] | Compound
< 100 | COC[C@@]1(F)C[C@@H](C(=O)N[C@H](C)c2cc(C(=N)N)cs2)N(C(=O)CNC(=O)c2ccc3c(c2)Oc2ccccc2S3)C1 [Compound 373, (2S,4R)—N—((R)-1-(4-carbamimidoylthiophen-2-yl)ethyl)-4-fluoro-4-(methoxymethyl)-1-((phenoxathiine-3-carbonyl)glycyl)pyrrolidine-2-carboxamide]
< 100 | C[C@@H](NC(=O)[C@@H]1C[C@@H](S(C)(=O)=O)CN1C(=O)CNC(=O)c1ccc2cc3ccccc3cc2c1)c1cc(C(=N)N)cs1 [Compound 239, (2S,4R)-1-((anthracene-2-carbonyl)glycyl)-N—((R)-1-(4-carbamimidoylthiophen-2-yl)ethyl)-4-(methylsulfonyl)pyrrolidine-2-carboxamide]
< 100 | C[C@@H](NC(=O)[C@@H]1C[C@](F)(CF)CN1C(=O)CNC(=O)c1ccc2c(c1)oc1ccccc12)c1cc(C(=N)N)cs1 [Compound 372, (2S,4R)—N—((R)-1-(4-carbamimidoylthiophen-2-yl)ethyl)-1-((dibenzo[b,d]furan-3-carbonyl)glycyl)-4-fluoro-4-(fluoromethyl)pyrrolidine-2-carboxamide]
< 100 | CCCCCCOC(=O)/N=C(/N)c1csc([C@@H](C)NC(=O)[C@@H]2C[C@](F)(CF)CN2C(=O)CNC(=O)c2ccc3c(c2)-c2ccccc2C3(F)F)c1 [Compound 253, hexyl ((E)-amino(5-((R)-1-((2S,4R)-1-((9,9-difluoro-9H-fluorene-3-carbonyl)glycyl)-4-fluoro-4-(fluoromethyl)pyrrolidine-2-carboxamido)ethyl)thiophen-3-yl)methylene)carbamate]
< 100 | C[C@@H](NC(=O)[C@@H]1CC2(CN1C(=O)CNC(=O)c1ccc3cc4ccccc4nc3c1)OCCO2)c1cc(C(=N)N)cs1 [Compound 331, (S)-7-((acridine-3-carbonyl)glycyl)-N—((R)-1-(4-carbamimidoylthiophen-2-yl)ethyl)-1,4-dioxa-7-azaspiro[4.4]nonane-8-carboxamide]
< 100 | N=C(N)c1csc(CCNC(=O)[C@@H]2CC3(CN2C(=O)CNC(=O)c2ccc4c(c2)-c2ccccc2C4(F)F)OCCO3)c1 [Compound 251, (S)—N-(2-(4-carbamimidoylthiophen-2-yl)ethyl)-7-((9,9-difluoro-9H-fluorene-3-carbonyl)glycyl)-1,4-dioxa-7-azaspiro[4.4]nonane-8-carboxamide]
< 100 | C[C@@H](NC(=O)[C@@H]1C[C@@H](OC(F)F)CN1C(=O)CNC(=O)c1ccc2c(c1)C(F)(F)c1ccccc1-2)c1cc(C(=N)N)cs1 [Compound 262, (2S,4R)—N—((R)-1-(4-carbamimidoylthiophen-2-yl)ethyl)-1-((9,9-difluoro-9H-fluorene-2-carbonyl)glycyl)-4-(difluoromethoxy)pyrrolidine-2-carboxamide]
< 100 | C[C@@H](NC(=O)[C@@H]1C[C@]2(COCCN(C)C)C[C@@H]2N1C(=O)CNC(=O)c1ccc2c(c1)-c1ccccc1C2(F)F)c1cc(C(=N)N)cs1 [Compound 367, (1S,3S,5R)—N—((R)-1-(4-carbamimidoylthiophen-2-yl)ethyl)-2-((9,9-difluoro-9H-fluorene-3-carbonyl)glycyl)-5-((2-(dimethylamino)ethoxy)methyl)-2-azabicyclo[3.1.0]hexane-3-carboxamide]
< 100 | COC1c2ccccc2-c2cc(C(=O)NCC(=O)N3CC4(C[C@H]3C(=O)N[C@H](C)c3cc(C(=N)N)cs3)OCCO4)ccc21 (stereo partly drawn) [Compound 277, (8S)—N—((R)-1-(4-carbamimidoylthiophen-2-yl)ethyl)-7-((9-methoxy-9H-fluorene-3-carbonyl)glycyl)-1,4-dioxa-7-azaspiro[4.4]nonane-8-carboxamide]
> 1000 | Nc1cccc(Nc2csc(CNC(=O)[C@@H]3CC4(CN3C(=O)CNC(=O)c3ccc(Oc5ccc(F)cc5)cc3)OCCO4)c2)n1 [Compound 285, (S)-N-((4-((6-aminopyridin-2-yl)amino)thiophen-2-yl)methyl)-7-((4-(4-fluorophenoxy)benzoyl)glycyl)-1,4-dioxa-7-azaspiro[4.4]nonane-8-carboxamide]
< 100 | N=C(N)c1csc(CNC(=O)[C@@H]2CC3(CN2C(=O)CNC(=O)c2ccc(-c4ccncc4F)cc2)OCCO3)c1 [Compound 266, (S)—N-((4-carbamimidoylthiophen-2-yl)methyl)-7-((4-(3-fluoropyridin-4-yl)benzoyl)glycyl)-1,4-dioxa-7-azaspiro[4.4]nonane-8-carboxamide]
< 100 | C[C@@H](NC(=O)[C@@H]1C[C@@H](OC(F)F)CN1C(=O)CNC(=O)c1ccc2oc3ccccc3c2c1)c1cc(C(=N)N)cs1 [Compound 205, (2S,4R)—N—((R)-1-(4-carbamimidoylthiophen-2-yl)ethyl)-1-((dibenzo[b,d]furan-2-carbonyl)glycyl)-4-(difluoromethoxy)pyrrolidine-2-carboxamide]
< 100 | Cc1ccc(-c2cccc(C(=O)NCC(=O)N3C[C@H](S(C)(=O)=O)C[C@H]3C(=O)N[C@H](C)c3cc(C(=N)N)cs3)c2)cc1 [Compound 335, (2S,4R)—N—((R)-1-(4-carbamimidoylthiophen-2-yl)ethyl)-1-((4′-methyl-[1,1′-biphenyl]-3-carbonyl)glycyl)-4-(methylsulfonyl)pyrrolidine-2-carboxamide]
> 1000 | C[C@@]12C[C@@H]1N(C(=O)CNC(=O)c1ccc3c(c1)-c1ccccc1C3(F)F)[C@H](C(=O)Nc1cc(C(=N)N)cs1)C2 [Compound 259, (1S,3S,5S)—N-(4-carbamimidoylthiophen-2-yl)-2-((9,9-difluoro-9H-fluorene-3-carbonyl)glycyl)-5-methyl-2-azabicyclo[3.1.0]hexane-3-carboxamide]

Same assay, conditions: Human complement C1s enzyme 1.16 nM, substrate Z-L-Lys-SBzl; assay of Example 3; read-out: IC50 (Stars)

IC50 [nM] | Compound
< 100 | CC1(C)c2ccccc2-c2cc(C(=O)NCC(=O)N3C[C@@](F)(CF)C[C@H]3C(=O)N[C@H](CO)c3cc(C(=N)N)cs3)ccc21 [Compound 401, (2S,4R)—N—((R)-1-(4-carbamimidoylthiophen-2-yl)-2-hydroxyethyl)-1-((9,9-dimethyl-9H-fluorene-3-carbonyl)glycyl)-4-fluoro-4-(fluoromethyl)pyrrolidine-2-carboxamide]
